# Earlier results as cited in PubChem BioAssay AID1259409 (Chemical Carcinogenesis Research Information System (CCRIS), 2018).
# Test system: rodent chemically induced tumor inhibition, incidence and multiplicity
# Assay: CCRIS tumor inhibitor studies
# Conditions: Dose [Inhibitor]: 0, Promoter: NONE USED
structure (smiles),measurement,setting,value
Cn1c(=O)c2c(ncn2C)n(C)c1=O,"tumour outcome (control, treated, inhibition, significance)","Carcinogen: 7,12-DIMETHYLBENZ[A]ANTHRACENE, 57-97-6, 500 MG/L IN DRINKING WATER OF 58 DAY OLD VIRGIN RATS (STUDY DURATION: 56 WK), Route [Inhibitor]: ORAL, Species: RAT, Strain/Sex: SPRAGUE-DAWLEY/FEMALE, Target Tissue: Type of Lesion: MAMMARY GLAND: FIBROADENOMA, Dose [Carcinogen]: 2 MG/100 G BW ONCE AT 55 D OF AGE","86%, 68%, 21%, not significant"
same,"tumour outcome (control, treated, inhibition, significance)","Carcinogen: 7,12-DIMETHYLBENZ[A]ANTHRACENE, 57-97-6, 500 MG/L IN DRINKING WATER OF 150 DAY OLD PAROUS RATS (STUDY DURATION: 165 D), Route [Inhibitor]: ORAL, Species: RAT, Strain/Sex: SPRAGUE-DAWLEY/FEMALE, Target Tissue: Type of Lesion: MAMMARY GLAND: CARCINOMA, Dose [Carcinogen]: 20 MG/ML IN CORN OIL ONCE AT 135 D OF AGE","21%, 3%, 86%, not calculated"
same,"tumour outcome (control, treated, inhibition, significance)","Carcinogen: 7,12-DIMETHYLBENZ[A]ANTHRACENE, 57-97-6, 500 MG/L IN DRINKING WATER OF 150 DAY OLD PAROUS RATS (STUDY DURATION: 165 D), Route [Inhibitor]: ORAL, Species: RAT, Strain/Sex: SPRAGUE-DAWLEY/FEMALE, Target Tissue: Type of Lesion: MAMMARY GLAND: FIBROADENOMA, Dose [Carcinogen]: 20 MG/ML IN CORN OIL ONCE AT 135 D OF AGE","62%, 40%, 35%, not significant"
same,"tumour outcome (control, treated, inhibition, significance)","Carcinogen: 7,12-DIMETHYLBENZ[A]ANTHRACENE, 57-97-6, 500 MG/L IN DRINKING WATER OF 150 DAY OLD VIRGIN RATS (STUDY DURATION: 165 D), Route [Inhibitor]: ORAL, Species: RAT, Strain/Sex: SPRAGUE-DAWLEY/FEMALE, Target Tissue: Type of Lesion: MAMMARY GLAND: CARCINOMA, Dose [Carcinogen]: 20 MG/ML IN CORN OIL ONCE AT 135 D OF AGE","45%, 20%, 56%, p<0.05"
same,"tumour outcome (control, treated, inhibition, significance)","Carcinogen: 7,12-DIMETHYLBENZ[A]ANTHRACENE, 57-97-6, 500 MG/L IN DRINKING WATER OF 150 DAY OLD VIRGIN RATS (STUDY DURATION: 165 D), Route [Inhibitor]: ORAL, Species: RAT, Strain/Sex: SPRAGUE-DAWLEY/FEMALE, Target Tissue: Type of Lesion: MAMMARY GLAND: FIBROADENOMA, Dose [Carcinogen]: 20 MG/ML IN CORN OIL ONCE AT 135 D OF AGE","72%, 43%, 40%, p<0.05"
same,"tumour outcome (control, treated, inhibition, significance)","Carcinogen: 17BETA-ESTRADIOL, 50-28-2, PROGESTERONE, 57-83-0, Carcinogen: 17BETA-ESTRADIOL, 50-28-2, PROGESTERONE, 57-83-0, 500 MG/L IN DISTILLED DRINKING WATER FOR 23 WK BEGINNING 1 WK POST FIRST CARCINOGEN DOSE (STUDY DURATION: 24 WK), Route [Inhibitor]: ORAL, Species: MOUSE, Strain/Sex: GR/A/FEMALE, Target Tissue: Type of Lesion: MAMMARY GLAND: TUMOR, Dose [Carcinogen]: 0.5 MG/L 17BETA-ESTRADIOL IN DRINKING WATER FOR 24 WK AND 30 MG PROGESTERONE IN PELLETS RENEWED EVERY 30 D FOR 24 WK","55/55 (100%), 52/55 (95%), 5%, not significant"
same,"tumour outcome (control, treated, inhibition, significance)","Carcinogen: 17BETA-ESTRADIOL, 50-28-2, PROGESTERONE, 57-83-0, Carcinogen: 17BETA-ESTRADIOL, 50-28-2, PROGESTERONE, 57-83-0, 500 MG/L IN DISTILLED DRINKING WATER FOR 23 WK BEGINNING 1 WK POST FIRST CARCINOGEN DOSE (STUDY DURATION: 24 WK), Route [Inhibitor]: ORAL, Species: MOUSE, Strain/Sex: GRS/SN/FEMALE, Target Tissue: Type of Lesion: MAMMARY GLAND: TUMOR, Dose [Carcinogen]: 0.5 MG/L 17BETA-ESTRADIOL IN DRINKING WATER FOR 24 WK AND 30 MG PROGESTERONE IN PELLETS RENEWED EVERY 30 D FOR 24 WK","46/47 (98%), 44/45 (98%), 0%, not significant"
same,"tumour outcome (control, treated, inhibition, significance)","Carcinogen: BENZO[A]PYRENE, 50-32-8, 1 MG/D FOR 6 WK (STUDY DURATION: 9 WK), Route [Inhibitor]: GAVAGE, Species: MOUSE, Strain/Sex: NIGP(S)/FEMALE, Target Tissue: Type of Lesion: LUNG: ADENOMA, Dose [Carcinogen]: 0.5 MG INJECTED IN THE SCAPULAR REGION OF NEWBORN MICE ONCE","35%, 21%, 40%, not calculated"
same,"tumour outcome (control, treated, inhibition, significance)","Carcinogen: BENZO[A]PYRENE, 50-32-8, 1 MG/D FOR 6 WK (STUDY DURATION: 9 WK), Route [Inhibitor]: GAVAGE, Species: MOUSE, Strain/Sex: NIGP(S)/MALE, Target Tissue: Type of Lesion: LUNG: ADENOMA, Dose [Carcinogen]: 0.5 MG INJECTED IN THE SCAPULAR REGION OF NEWBORN MICE ONCE","48%, 18%, 63%, not calculated"
same,"tumour outcome (control, treated, inhibition, significance)","Carcinogen: BENZO[A]PYRENE, 50-32-8, 2 MG/D FOR 6 WK (STUDY DURATION: 9 WK), Route [Inhibitor]: GAVAGE, Species: MOUSE, Strain/Sex: NIGP(S)/FEMALE, Target Tissue: Type of Lesion: LUNG: ADENOMA, Dose [Carcinogen]: 0.5 MG INJECTED IN THE SCAPULAR REGION OF NEWBORN MICE ONCE","35%, 5%, 86%, not calculated"
same,"tumour outcome (control, treated, inhibition, significance)","Carcinogen: BENZO[A]PYRENE, 50-32-8, 2 MG/D FOR 6 WK (STUDY DURATION: 9 WK), Route [Inhibitor]: GAVAGE, Species: MOUSE, Strain/Sex: NIGP(S)/MALE, Target Tissue: Type of Lesion: LUNG: ADENOMA, Dose [Carcinogen]: 0.5 MG INJECTED IN THE SCAPULAR REGION OF NEWBORN MICE ONCE","48%, 5%, 90%, not calculated"
same,"tumour outcome (control, treated, inhibition, significance)","Carcinogen: DIETHYLNITROSAMINE, 55-18-5, 300 MG/L IN DRINKING WATER BEGINNING 3 D PRIOR TO FIRST CARCINOGEN DOSE AND CONTINUING TO 14 D POST LAST CARCINOGEN D, Route [Inhibitor]: ORAL, Species: RAT, Strain/Sex: BD6/FEMALE, Target Tissue: Type of Lesion: ESOPHAGUS: TUMOR, Dose [Carcinogen]: 80 MG/KG BW 1/WK FOR 9 WK","50%, 54%, -8%, not significant"
same,"tumour outcome (control, treated, inhibition, significance)","Carcinogen: DIETHYLNITROSAMINE, 55-18-5, 300 MG/L IN DRINKING WATER BEGINNING 3 D PRIOR TO FIRST CARCINOGEN DOSE AND CONTINUING TO 14 D POST LAST CARCINOGEN D, Route [Inhibitor]: ORAL, Species: RAT, Strain/Sex: BD6/FEMALE, Target Tissue: Type of Lesion: LIVER: TUMOR, Dose [Carcinogen]: 80 MG/KG BW 1/WK FOR 9 WK","100%, 95%, 5%, not significant"
